± gives the expanded uncertainty stated by the source.
Settings: Liquid, Closed cell (Static) method

FCC(F)(F)F [1,1,1,2-tetrafluoroethane]
Settings | vapor or sublimation pressure [kPa]
258.2 K | 162 ± 5
262.2 K | 193 ± 5
272.2 K | 286 ± 5
282.6 K | 411 ± 5
292.9 K | 569 ± 5
302.7 K | 763 ± 6
